Data set [1] is classed as physicochemical. On the procedure: The next day the solids were analysed by HPLC for purity and assay (FIG. 3b), TG/DTA for ease of mass loss/thermal events (FIG. 4b) as well as polarised light microscopy (PLM) and XRPD for morphology and crystalline content. […] These mass losses correspond to weakly surface bound acetonitrile and water, and are not indicative of any solvation of the crystal form itself.

A short description of data set [2]: Gravimetric vapour sorption (GVS) of crystals. The following applies: 25° C. It is filed as physicochemical. The procedure:
Gravimetric vapour sorption (GVS) was performed on an SMS DVS-1. 1.4 mg of crystals and powder were added into an Al pan and exposed to stepwise relative humidity (RH) changes during two consecutive cycles: 20-30-40-50-60-70-80-70-60-50-40-30-20-10-0-10-20-30-40-50-60-70-80-90-80-70-60-50-40-30-20-10-0% RH in an open loop mode. The temperature was maintained at 25° C. and pure nitrogen flow rate of 200 ml/min was used. The dm/dt criteria applied was 0.001 weight-%/min during a 5 minute window, with a maximum time of 150 minutes for all steps, with the exception of steps at 0% RH that were set to 6 hours.

In data set [3] the test system is Prader-Willi Syndrome patients. The following applies: after 15 days, vs placebo treated patients; cited from earlier work.

Starred links: 1 amine or outer side, 2 acyl side, 3 side chain; linkers in the order of their positions; H or OH if unused. Positions of bridges follow the written chain, without caps; N, C: chain ends. Residues, ends and D or L forms follow the SMILES beside them. X1 = O=C(CCC[*:2])[*:1]

Take `CC[C@H](C)[C@@H]1NC(=O)[C@H](Cc2ccc(OC)cc2)NC(=O)CCCSC[C@@H](C(=O)N2CCC[C@H]2C(=O)N[C@@H](CC(C)C)C(=O)NCC(N)=O)NC(=O)[C@H](CC(N)=O)NC(=O)[C@H](CCC(N)=O)NC1=O` [Form II, carbetocin] (Y(Me)IQNCPLG-NH2; linker N-5 via X1): the “total mass loss (TG/DTA)” value in data set [1] (up to 110° C., crystals of Example 4, FIG. 4b) is on record as “approximately 0.8%”. Also, in data set [1] (up to approximately 60° C., weakly surface bound acetonitrile and water), the “first mass loss (TG/DTA)” value is “approximately 0.5%”. Further, the “second mass loss (TG/DTA)” value in data set [1] (up to approximately 110° C., weakly surface bound acetonitrile and water) is “approximately 0.3%”.

As for `CC[C@H](C)[C@@H]1NC(=O)[C@H](Cc2ccc(OC)cc2)NC(=O)CCCSC[C@@H](C(=O)N2CCC[C@H]2C(=O)N[C@@H](CC(C)C)C(=O)NCC(N)=O)NC(=O)[C@H](CC(N)=O)NC(=O)[C@H](CCC(N)=O)NC1=O` [Form III, carbetocin] (Y(Me)IQNCPLG-NH2; linker N-5 via X1), in data set [2] (crystals of Example 5, FIG. 8b), the “GVS isotherm plateau (monohydrate plus some loosely bound surface water)” value was “around 2 % (w/w)” and the “GVS second plateau, additional (pentahydrate with some loosely bound surface water)” value is “approximately 8 % (w/w)”. In data set [2] (sorption), the “relative humidity at which the pentahydrate exists” value was not below 60 % RH.

Turning to `CC[C@H](C)[C@@H]1NC(=O)[C@H](Cc2ccc(OC)cc2)NC(=O)CCCSC[C@@H](C(=O)N2CCC[C@H]2C(=O)N[C@@H](CC(C)C)C(=O)NCC(N)=O)NC(=O)[C@H](CC(N)=O)NC(=O)[C@H](CCC(N)=O)NC1=O` [carbetocin, 1-butanoic acid-2-(O-methyl-L-tyrosine)-1-carbaoxytocin] (Y(Me)IQNCPLG-NH2; linker N-5 via X1), in data set [3], the “improvement over placebo in measurements of hyperphagia, obsessive compulsive disorder, food seeking behaviour and clinical global impression” value is reported as “statistically significant improvement over placebo treated patients”.

(Values after patent US12139558B2, “Method of manufacturing a pharmaceutical composition” (Ferring B.V., priority 2017, dated 2024).)
